According to US8143240B2, “17α, 21-dihydroxypregnene esters as antiandrogenic agents” (Cosmo S.p.A., priority 2001, dated 2012):

Tested on: flank organ
Assay: topical antiandrogenic activity test (hamster flank organ, Voigt and Hsia)
Type: in vivo, hamsters
Conditions: 21 days
Method: The test was carried out on sexually immature female hamsters aged 6-8 weeks and weighing 65-90 grams.
At the beginning of the tests, the back of each animal was shaved to evidence the respective flank organ bilaterally. Animals were then subdivided into homogeneous groups and treated daily for 21 consecutive days. The tested steroids were dissolved at concentrations ranging from 100 to 400 micrograms in 50 microliters of an acetone solution containing 4 micrograms of testosterone propionate (TP) or 4 micrograms of dihydrotestosterone (DHT). 50 microliters of the solutions were applied to the right flank organ, while the contralateral organ used as individual control received only acetone (50 microliters). Control groups received TP or DHT alone, following the same procedures.
At the end of the tests, the animals were killed under ether anesthesia and the whole skine of the back was taken. The area of both flank organs was measured, separately, with transillumination. The mean differences between areas treated with the tested steroids and those treated with the carrier alone were calculated for each group, and said mean differences were compared, as inhibition percentages, to the mean differences between the areas in the control groups treated with either TP or DHT.

[1] = DHT 4 μg + compound 400 μg daily, topical on right flank organ, female hamsters
[2] = TP 4 μg + compound 400 μg daily, topical on right flank organ, female hamsters
[3] = versus DHT control, DHT 4 μg + compound 400 μg daily, topical
[4] = versus TP control, TP 4 μg + compound 400 μg daily, topical
[5] = androgen alone (control group), 4 μg daily, topical

| SMILES | Mean difference of the areas [1] [mm^2] | Mean difference of the areas [2] [mm^2] | % inhibition [3] [%] | % inhibition [4] [%] | Mean difference of the areas [5] [mm^2] |
| --- | --- | --- | --- | --- | --- |
| CCC(=O)O[C@]1(C(=O)CO)CC[C@H]2[C@@H]3CCC4=CC(=O)CC[C@]4(C)C3=CC[C@@]21C [Compound A, 17α-propionyl-21-hydroxy-pregna-4,9-diene-3,20-dione] | 9.7 ± 1.8 | 3.7 ± 1.1 | 53 | 84 | – |
| C[C@]12CCC(=O)C[C@@H]1CC[C@@H]1[C@@H]2CC[C@]2(C)[C@@H](O)CC[C@@H]12 [DHT, dihydrotestosterone, reference compound] | – | – | – | – | 20.8 ± 2.5 |
| CCCC(=O)OCC(=O)[C@@]1(OC(=O)CCC)CC[C@H]2[C@@H]3CCC4=CC(=O)CC[C@]4(C)C3=CC[C@@]21C [Ex. 1, 17α,21-dibutanoyl-pregna-4,9-diene-3,20-dione] | 3.7 ± 0.7 | 2.4 ± 1.1 | 82 | 89 | – |
| CCCC(=O)OCC(=O)[C@@]1(O)CC[C@H]2[C@@H]3CCC4=CC(=O)CC[C@]4(C)C3=CC[C@@]21C [Ex. 2, 17α-hydroxy-21-butanoyl-pregna-4,9-diene-3,20-dione] | 4.1 ± 0.5 | 3.3 ± 1.2 | 80 | 85 | – |
| CCC(=O)O[C@H]1CC[C@H]2[C@@H]3CCC4=CC(=O)CC[C@]4(C)[C@H]3CC[C@]12C [TP, testosterone propionate, reference compound] | – | – | – | – | 22.7 ± 2.3 |
